*1 amine or outer side, *2 acyl side, *3 side chain or, on linkers, in order; H or OH if unused. Where a SMILES comes first, the peptide text is derived from it. [ ]: non-standard residue; d: D form. X4 = O=C(CCC(=O)[*:2])[C@H](Cc1ccccc1)N[*:1]; X6 = O=C(COC[C@H](Cc1ccccc1)N[*:1])[*:2]; X9 = O=C(CCC[C@H](Cc1ccccc1)N[*:1])[*:2]; Arg(Me) = CNC(=N)NCCC[C@H](N)C(=O)O; Hyp = O=C(O)[C@@H]1C[C@@H](O)CN1; 2Pal = N[C@@H](Cc1ccccn1)C(=O)O; 3Pal = N[C@@H](Cc1cccnc1)C(=O)O; 4Pal = N[C@@H](Cc1ccncc1)C(=O)O; Cha = N[C@@H](CC1CCCCC1)C(=O)O; Abu = CC[C@H](N)C(=O)O; Dap = NC[C@H](N)C(=O)O; Aib = CC(C)(N)C(=O)O
Test system: metastin receptors
Assay: Measurement of agonist activity by assaying changes in intracellular calcium ion level (FLIPR, Fluo-4 NW)
Assay type: cell-based, human
Conditions: specific activity of the EC50 of a test compound based on the EC50 of Metastin (45-54), metastin receptor expression CHO cells
Experimental: 1) Preparation of Human Metastin and Rat Metastin Stable Expression Cell Lines
Human metastin and rat metastin stable expression cell lines were obtained by transfecting the expression plasmid for animal cells into CHO/dhfr^− cells using CellPhect Transfection Kit (manufactured by GE Healthcare). First, 240 μL of Buffer A (attached to CellPhect Transfection Kit) was added to 9.6 μg of plasmid DNA dissolved in 240 μL of distilled water followed by stirring. After the mixture was settled for 10 minutes, 480 μL of Buffer B (attached to CellPhect Transfection Kit) was added to the mixture, which was vigorously stirred to form liposomes containing the DNA. Then, 4×10^5 CHO/dhfr^− cells (obtained from ATCC) were inoculated on a 60 mm Petri dish. After culturing the cells in Ham's F-12 medium (manufactured by Nissui Seiyaku Co., Ltd.) supplemented with 10% fetal bovine serum (manufactured by BIO […], Inc.) at 37° C. for 2 days in 5% carbon dioxide gas, […] of the liposomes were dropwise added to the cells on the Petri dish. After culturing the cells in a CO2 incubator (5% CO2, 37° C.) for 6 hours, the cells were washed twice with serum-free Ham's F-12 medium and 3 mL of 15% glycerol was added to the cells on the Petri dish followed by treatment for 2 minutes. The cells were again washed twice with serum-free Ham's F-12 medium followed by incubation in Ham's F-12 medium supplemented with 10% fetal bovine serum in a CO2 incubator (5% CO2, 37° C.) for 15 hours. The cells were dispersed by trypsin treatment to recover from the Petri dish. The recovered cells were inoculated on a 6-well plate in 1.25×10^4 cells each/well and incubation was initiated in a CO2 incubator (5% CO2, 37° C.) in Dulbecco's modified Eagle medium (DMEM, manufactured by Nissui Seiyaku) containing 10% dialyzed fetal bovine serum (manufactured by JRH BIOSCIENCES, Inc.). The plasmid-transfected CHO transformants grew in the medium but the non-transfected cells gradually died, accordingly the medium was exchanged on Days 1 and 2 after the initiation of incubation to remove the dead cells. Approximately 20 colonies of the CHO transformants that kept growing on Days 8 to 10 after the incubation were isolated. From the cells in these colonies, cells showing high reactivity with the ligand peptide metastin (hereinafter merely referred to as h175 KB19 and h175 KB29 strains) were selected to provide for the following experiment.
Human metastin expression CHO cell line (h175 KB19 strain is described in a separate section) and rat metastin expression CHO cell line (h175 KB29 strain is described in a separate section) were seeded in a 96-well plate (type 3904, manufactured by Corning) at 3×10^4 cells/well, followed by incubation in a CO2 incubator (5% CO2, 37° C.) for 24 hours. For the medium, MEMα medium (nucleic acid-free, manufactured by Nikken Bio Medical Laboratory) supplemented with dialyzed 10% fetal bovine serum (manufactured by Thermo, MultiSer) was used.
3) Loading with Fluo-4 NW in Cells
As an assay buffer, 1× Hanks' balanced salt solution (HBSS, manufactured by GIBCO) supplemented with 0.1% BSA, 20 mM HEPES (pH 7.4, manufactured by GIBCO) and 1 mM Probenecid (manufactured by Molecular Probes) was prepared. The medium in the wells of the cell-seeded plate was removed and 100 μL each of the assay buffer (kept warm at 37° C.) was added to each well. After 10 mL of the assay buffer (the volume for assaying two plates) was charged in one Fluo-4NW dye mix (Component A, Fluo-4 NW calcium assay kit (starter pack), manufactured by Molecular Probes) bottle, the mixture was gently stirred to prepare the Fluo-4 NW loading solution. This loading solution was charged in each well by 50 μl each and reacted in a CO2 incubator (5% CO2, 37° C.) for 30 minutes for loading with Fluo-4 NW into the cells. Subsequently, the cells were settled at room temperature (25° C.) for 15 minutes and then used for assay.
4) Measurement of Agonist Activity […]

Specific Activity | SMILES
1.2 | CNC(=N)NCCC[C@H](NC(=O)[C@H](CC(C)C)NC(=O)CNC(=O)[C@H](Cc1ccccc1)NC(=O)[C@@H](NC(=O)[C@H](CC(N)=O)NC(=O)[C@@H]1C[C@@H](O)CN1C(=O)[C@@H](Cc1ccc(O)cc1)NC(C)=O)[C@@H](C)O)C(=O)N[C@@H](Cc1c[nH]c2ccccc12)C(N)=O [Compound No. 796, des(1)-Ac-[D-Tyr2,Hyp3,Thr5,Arg(Me)9,Trp10]MS10] (Ac-[dY][Hyp]NTFGL[Arg(Me)]W-NH2)
1.5 | CNC(=N)NCCC[C@H](NC(=O)[C@H](CC(C)C)NC(=O)C(C)(C)NC(=O)[C@H](Cc1ccccc1)NC(=O)[C@@H](NC(=O)[C@H](CC(N)=O)NC(=O)[C@@H]1C[C@@H](O)CN1C(=O)[C@@H](Cc1ccc(O)cc1)NC(C)=O)[C@@H](C)O)C(=O)N[C@@H](Cc1c[nH]c2ccccc12)C(N)=O [Compound No. 811, des(1)-Ac-[D-Tyr2,Hyp3,Thr5,Aib7,Arg(Me)9,Trp10]MS10] (Ac-[dY][Hyp]NTF[Aib]L[Arg(Me)]W-NH2)
1.0 | CC[C@H](NC(=O)[C@H](Cc1ccccc1)NC(=O)[C@@H](NC(=O)[C@H](CC(N)=O)NC(=O)[C@@H]1C[C@@H](O)CN1C(=O)[C@@H](Cc1ccc(O)cc1)NC(C)=O)[C@@H](C)O)C(=O)N[C@@H](CC(C)C)C(=O)N[C@@H](CCCNC(=N)NC)C(=O)N[C@@H](Cc1c[nH]c2ccccc12)C(N)=O [Compound No. 818, des(1)-Ac-[D-Tyr2,Hyp3,Thr5,Abu7,Arg(Me)9,Trp10]MS10] (Ac-[dY][Hyp]NTF[Abu]L[Arg(Me)]W-NH2)
0.3 | CNC(=N)NCCC[C@H](NC(=O)[C@H](CC(C)C)NC(=O)CNC(=O)[C@H](CC1CCCCC1)NC(=O)[C@@H](NC(=O)[C@H](CC(N)=O)NC(=O)[C@@H]1C[C@@H](O)CN1C(=O)[C@@H](Cc1ccc(O)cc1)NC(C)=O)[C@@H](C)O)C(=O)N[C@@H](Cc1c[nH]c2ccccc12)C(N)=O [Compound No. 822, des(1)-Ac-[D-Tyr2,Hyp3,Thr5,Cha6,Arg(Me)9,Trp10]MS10] (Ac-[dY][Hyp]NT[Cha]GL[Arg(Me)]W-NH2)
0.5 | CNC(=N)NCCC[C@H](NC(=O)[C@H](CC(C)C)NC(=O)[C@H](C)NC(=O)[C@H](CC1CCCCC1)NC(=O)[C@@H](NC(=O)[C@H](CC(N)=O)NC(=O)[C@@H]1C[C@@H](O)CN1C(=O)[C@@H](Cc1ccc(O)cc1)NC(C)=O)[C@@H](C)O)C(=O)N[C@@H](Cc1c[nH]c2ccccc12)C(N)=O [Compound No. 823, des(1)-Ac-[D-Tyr2,Hyp3,Thr5,Cha6,Ala7,Arg(Me)9,Trp10]MS10] (Ac-[dY][Hyp]NT[Cha]AL[Arg(Me)]W-NH2)
1.3 | CNC(=N)NCCC[C@H](NC(=O)[C@H](CC(C)C)NC(=O)[C@H](CN)NC(=O)[C@H](Cc1ccccc1)NC(=O)[C@@H](NC(=O)[C@H](CC(N)=O)NC(=O)[C@@H]1C[C@@H](O)CN1C(=O)[C@@H](Cc1ccc(O)cc1)NC(C)=O)[C@@H](C)O)C(=O)N[C@@H](Cc1c[nH]c2ccccc12)C(N)=O [Compound No. 827, des(1)-Ac-[D-Tyr2,Hyp3,Thr5,Dap7,Arg(Me)9,Trp10]MS10] (Ac-[dY][Hyp]NTF[Dap]L[Arg(Me)]W-NH2)
1.2 | CNC(=N)NCCC[C@H](NC(=O)[C@H](CC(C)C)NC(=O)[C@H](COC)NC(=O)[C@H](Cc1ccccc1)NC(=O)[C@@H](NC(=O)[C@H](CC(N)=O)NC(=O)[C@@H]1C[C@@H](O)CN1C(=O)[C@@H](Cc1ccc(O)cc1)NC(C)=O)[C@@H](C)O)C(=O)N[C@@H](Cc1c[nH]c2ccccc12)C(N)=O [Compound No. 828, des(1)-Ac-[D-Tyr2,Hyp3,Thr5,Ser(Me)7,Arg(Me)9,Trp10]MS10] (Ac-[dY][Hyp]NTFS(Me)L[Arg(Me)]W-NH2)
0.5 | CNC(=N)NCCC[C@H](NC(=O)[C@H](CC(C)C)NC(=O)COC[C@H](Cc1ccccc1)NC(=O)[C@@H](NC(=O)[C@H](CC(N)=O)NC(=O)[C@@H]1C[C@@H](O)CN1C(=O)[C@@H](Cc1ccc(O)cc1)NC(C)=O)[C@@H](C)O)C(=O)N[C@@H](Cc1c[nH]c2ccccc12)C(N)=O [Compound No. 834, des(1)-Ac-[D-Tyr2,Hyp3,Thr5,Phe6Ψ(CH2O)Gly7,Arg(Me)9,Trp10]MS10] (Ac-[dY][Hyp]NT[X6]L[Arg(Me)]W-NH2)
1.2 | CNC(=N)NCCC[C@H](NC(=O)[C@H](CC(C)C)NC(=O)CNC(=O)[C@H](Cc1ccccn1)NC(=O)[C@@H](NC(=O)[C@H](CC(N)=O)NC(=O)[C@@H]1C[C@@H](O)CN1C(=O)[C@@H](Cc1ccc(O)cc1)NC(C)=O)[C@@H](C)O)C(=O)N[C@@H](Cc1c[nH]c2ccccc12)C(N)=O [Compound No. 839, des(1)-Ac-[D-Tyr2,Hyp3,Thr5,Pya(2)6,Arg(Me)9,Trp10]MS10] (Ac-[dY][Hyp]NT[2Pal]GL[Arg(Me)]W-NH2)
1.7 | CNC(=N)NCCC[C@H](NC(=O)[C@H](CC(C)C)NC(=O)[C@@H](NC(=O)[C@H](Cc1ccccc1)NC(=O)[C@@H](NC(=O)[C@H](CC(N)=O)NC(=O)[C@@H]1C[C@@H](O)CN1C(=O)[C@@H](Cc1ccc(O)cc1)NC(C)=O)[C@@H](C)O)C(C)C)C(=O)N[C@@H](Cc1c[nH]c2ccccc12)C(N)=O [Compound No. 847, des(1)-Ac-[D-Tyr2,Hyp3,Thr5,Val7,Arg(Me)9,Trp10]MS10] (Ac-[dY][Hyp]NTFVL[Arg(Me)]W-NH2)
0.9 | CNC(=N)NCCC[C@H](NC(=O)[C@H](CC(C)C)NC(=O)CNC(=O)[C@H](Cc1cccnc1)NC(=O)[C@@H](NC(=O)[C@H](CC(N)=O)NC(=O)[C@@H]1C[C@@H](O)CN1C(=O)[C@@H](Cc1ccc(O)cc1)NC(C)=O)[C@@H](C)O)C(=O)N[C@@H](Cc1c[nH]c2ccccc12)C(N)=O [Compound No. 848, des(1)-Ac-[D-Tyr2,Hyp3,Thr5,Pya(3)6,Arg(Me)9,Trp10]MS10] (Ac-[dY][Hyp]NT[3Pal]GL[Arg(Me)]W-NH2)
0.9 | CNC(=N)NCCC[C@H](NC(=O)[C@H](CC(C)C)NC(=O)CNC(=O)[C@H](Cc1ccncc1)NC(=O)[C@@H](NC(=O)[C@H](CC(N)=O)NC(=O)[C@@H]1C[C@@H](O)CN1C(=O)[C@@H](Cc1ccc(O)cc1)NC(C)=O)[C@@H](C)O)C(=O)N[C@@H](Cc1c[nH]c2ccccc12)C(N)=O [Compound No. 849, des(1)-Ac-[D-Tyr2,Hyp3,Thr5,Pya(4)6,Arg(Me)9,Trp10]MS10] (Ac-[dY][Hyp]NT[4Pal]GL[Arg(Me)]W-NH2)
1.3 | CNC(=N)NCCC[C@H](NC(=O)[C@H](CC(C)C)NC(=O)CCC[C@H](Cc1ccccc1)NC(=O)[C@@H](NC(=O)[C@H](CC(N)=O)NC(=O)[C@@H]1C[C@@H](O)CN1C(=O)[C@@H](Cc1ccc(O)cc1)NC(C)=O)[C@@H](C)O)C(=O)N[C@@H](Cc1c[nH]c2ccccc12)C(N)=O [Compound No. 850, des(1)-Ac-[D-Tyr2,Hyp3,Thr5,Phe6Ψ(CH2CH2)Gly7,Arg(Me)9,Trp10]MS10] (Ac-[dY][Hyp]NT[X9]L[Arg(Me)]W-NH2)
1.1 | CNC(=N)NCCC[C@H](NC(=O)[C@H](CC(C)C)NC(=O)CCC(=O)[C@H](Cc1ccccc1)NC(=O)[C@@H](NC(=O)[C@H](CC(N)=O)NC(=O)[C@@H]1C[C@@H](O)CN1C(=O)[C@@H](Cc1ccc(O)cc1)NC(C)=O)[C@@H](C)O)C(=O)N[C@@H](Cc1c[nH]c2ccccc12)C(N)=O [Compound No. 851, des(1)-Ac-[D-Tyr2,Hyp3,Thr5,Phe6Ψ(COCH2)Gly7,Arg(Me)9,Trp10]MS10] (Ac-[dY][Hyp]NT[X4]L[Arg(Me)]W-NH2)

Reference: patent publication US7786083B2, “Metastin derivatives and use thereof” (Takeda Pharmaceutical Company Limited, priority 2006, dated 2010)
